Columns and labels:
SETVI = test: Post-emergence herbicidal effect, greenhouse pot test; format: in vivo, Setaria viridis; settings: 320 g/ha
Outline: (§1)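 Sandy loam pots, greenhouse. One-leaf stage (2–3 wk after sowing) foliar spray; WP/EC in water + 0.5% additive, 600 l/ha; 20–320 g/ha. Visual score ~3 wk, 0–100% vs untreated.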

POLCO = test: as above; format: in vivo, Fallopia convolvulus
Outline: as §1

ALOMY = test: as above; format: in vivo, Alopecurus myosuroides; settings: visual rating about 3 weeks after treatment
Outline: as §1

ABUTH = test: as above; format: in vivo, Abutilon theophrasti; settings: 320 g/ha, visual rating about 3 weeks after treatment
Outline: as §1

ECHCG = test: as above; format: in vivo, Echinochloa crus-galli
Outline: as §1

AVEFA = test: as above; format: in vivo, Avena fatua; settings: visual rating about 3 weeks after treatment
Outline: as §1

AMARE = test: as above; format: in vivo, Amaranthus retroflexus; settings: 320 g/ha, visual rating about 3 weeks after treatment
Outline: as §1

ZEAMX = test: Post-emergence herbicidal effect and crop plant compatibility, greenhouse pot test; format: in vivo, Zea mays; settings: one-leaf stage, rated visually after about 3 weeks vs untreated controls
Outline: (§2)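 Greenhouse pot test: weeds and crops sown in sandy loam, sprayed post-emergence at one-leaf stage (2–3 weeks after sowing) with WP or EC formulations plus 0.5% additive at 600 l/ha water, rates 20–320 g/ha. Visual rating about 3 weeks later versus untreated controls (100% = dead, 0% = as control).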

PHBPU = test: Post-emergence herbicidal effect, greenhouse pot test; format: in vivo, Ipomoea purpurea
Outline: as §1

KCHSC = test: as above; format: in vivo
Outline: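 Greenhouse plants in sandy loam, sprayed post-emergence at the one-leaf stage (2–3 weeks after sowing) with WP or EC formulations in water plus 0.5% additive at 600 l/ha. Rates 20 to 320 g/ha. Activity rated visually after about 3 weeks against untreated controls (0% like control, 100% dead).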

DIGSA = test: as above; format: in vivo, Digitaria sanguinalis; settings: 320 g/ha, visual rating about 3 weeks after treatment
Outline: as §1

VIOTR = test: as above; format: in vivo, Viola tricolor
Outline: as §1

TRZAS = test: Post-emergence herbicidal effect and crop plant compatibility, greenhouse pot test; format: in vivo, Triticum aestivum; settings: 20 g/ha, one-leaf stage, rated visually after about 3 weeks vs untreated controls
Outline: as §2

LOLRI = test: Post-emergence herbicidal effect, greenhouse pot test; format: in vivo, Lolium rigidum
Outline: as §1

VERPE = test: as above; format: in vivo, Veronica persica
Outline: as §1

MATIN = test: as above; format: in vivo, Tripleurospermum inodorum; settings: 320 g/ha
Outline: as §1

SMILES | Post-emergence effect against SETVI in % (SETVI) [%] | Post-emergence effect against POLCO in % (POLCO; 80 g/ha) [%] | Post-emergence effect against POLCO in % (POLCO; 320 g/ha) [%] | Post-emergence effect against ALOMY (ALOMY; 320 g/ha) [%] | Post-emergence effect against ABUTH (ABUTH) [%] | Post-emergence effect against ECHCG in % (ECHCG; 80 g/ha) [%] | Post-emergence effect against ECHCG in % (ECHCG; 320 g/ha) [%] | Post-emergence effect against AVEFA (AVEFA; 320 g/ha) [%] | Post-emergence effect against AMARE (AMARE) [%] | Post-emergence effect at 20 g/ha against ZEAMX in % (ZEAMX) [%] | Post-emergence effect against PHBPU in % (PHBPU; 320 g/ha) [%] | Post-emergence effect against KCHSC in % (KCHSC; 320 g/ha) [%] | Post-emergence effect against DIGSA (DIGSA) [%] | Post-emergence effect against VIOTR in % (VIOTR; 80 g/ha) [%] | Post-emergence effect against VIOTR in % (VIOTR; 320 g/ha) [%] | Post-emergence effect at 20 g/ha against TRZAS in % (TRZAS) [%] | Post-emergence effect against LOLRI in % (LOLRI; 320 g/ha) [%] | Post-emergence effect against VERPE in % (VERPE; 320 g/ha) [%] | other results
COC(=O)CCOC(=O)C(OC)Oc1nn(-c2ncccc2F)c(-c2ccc(F)nc2)c1C1CC1 (single isomer, unassigned) [Example I-88] | 90 | 90 | 90 | 90 | 80 | 90 | 90 | 90 | 80 | 0 | 90 | 80 | 80 | 80 | 90 | 20 | 90 | 90 | Post-emergence effect against POLCO in % (POLCO; 20 g/ha): 80%; Post-emergence effect against ALOMY (ALOMY; 80 g/ha): 90%; Post-emergence effect against ECHCG (ECHCG; 20 g/ha, visual rating about 3 weeks after treatment): 80%; Post-emergence effect against AVEFA (AVEFA; 80 g/ha): 90%; Post-emergence effect at 80 g/ha against ZEAMX in % (ZEAMX; 80 g/ha): 0%; Post-emergence effect at 320 g/ha against ZEAMX in % (ZEAMX; 320 g/ha): 0%; Post-emergence effect against KCHSC in % (KCHSC; 80 g/ha): 80%; Post-emergence effect against LOLRI in % (LOLRI; 80 g/ha): 90%
CCOC(Oc1nn(-c2ccccc2F)c(-c2ccc(F)nc2)c1Cl)C(=O)OCCC(=O)OC (centres unmarked) [Example I-53] | 90 | 80 | 80 | 100 | 80 | 90 | 90 | 90 | 80 | 0 | 90 | 80 | 90 | 80 | 80 | 0 | 90 | 90 | Post-emergence effect against PHBPU in % (PHBPU; 80 g/ha): 90%; Post-emergence effect against VERPE in % (VERPE; 80 g/ha): 80%; Post-emergence effect against MATIN in % (MATIN): 80%

— US20240391862A1, “(1,4,5-TRISUBSTITUTED-1H-PYRAZOL-3-YL)OXY-2-ALKOXY ALKYL ACIDS AND THEIR DERIVATIVES, THEIR SALTS AND THEIR USE AS HERBICIDAL AGENTS” (Bayer AKtiengesellschaft, priority 2021, published 2024)
